From article PMC1977926, “Human pancreatic cancer cell lines do not express receptors for somatostatin” (British Journal of Cancer, 1992)
Bridge positions count the residues as written; N and C are the ends. Square brackets hold non-standard residues; d marks the D form. Peptide text beside a SMILES is read from it. Tyr(3-I) = N[C@@H](Cc1ccc(O)c(I)c1)C(=O)O

Assays:
[1] = molecular target: T1, somatostatin receptors (AR42J membranes) (Rattus norvegicus, UniProt P30680); experiment: Displacement binding, 125I-SS, AR42J membranes; conditions: 125I-SS 0.5 nM, 1 h at 30 C
T1 construct: endogenous in cells; host or cells: AR42J rat pancreatic acinar tumour cell line (membrane preparation)
T1 sequence (P30680 whole entry): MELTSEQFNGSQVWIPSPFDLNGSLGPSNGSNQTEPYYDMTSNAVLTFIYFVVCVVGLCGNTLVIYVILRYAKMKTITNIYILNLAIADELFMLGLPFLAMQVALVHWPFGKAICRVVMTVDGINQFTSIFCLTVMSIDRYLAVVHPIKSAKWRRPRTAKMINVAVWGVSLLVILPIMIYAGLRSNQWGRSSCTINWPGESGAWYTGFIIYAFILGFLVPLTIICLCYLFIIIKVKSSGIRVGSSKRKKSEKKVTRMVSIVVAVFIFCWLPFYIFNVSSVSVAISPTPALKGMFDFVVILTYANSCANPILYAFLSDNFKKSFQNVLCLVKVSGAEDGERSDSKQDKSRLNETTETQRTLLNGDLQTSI
Excerpt: (§1) Br. J. Cancer (1992), 66, 483 487 ? […] Somatostatin (SS) is a tetradecapeptide widely distributed throughout the body, being found in high concentrations in the brain, stomach, intestine and pancreas (Reichlin, 1983). Somatostatin exerts inhibitory actions on the cellular func- tions within a variety of tissues including secretion and growth (Konturek et al., 1988; Meyers & Coy, 1980; Schally, 1988). […] It has therefore been proposed that somatostatin may be capable of inhibiting pancreatic tumour growth indirectly via the suppression of secretion of pancreatic trophic hor- mones and/or by direct effects on the tumour itself (Schally et al., 1988; Liebow et al., 1989). […] For somatostatin to impair directly the growth of pancreatic cancer the cells should therefore express receptors for the peptide. The aim of these study was to determine the somatostatin receptor status of two human (MiaPaCa-2 & Panc-1) and a rat (AR42J) pancreatic cancer cell lines. […] DNA synthesis was assessed for the final 6 h by adding 0.5 liCi 3H-thymi- dine/well. […] Scin- tillation fluid was added to individual filter discs and the cell associated radioactivity counted in a beta counter (Packard 1900CA Tricarb). […] The protein content of the suspension was determined using a bicinchoninic acid kit (Pierce, Rockford, USA).

[2] = system: somatostatin receptors (Panc-1 membranes); experiment: Displacement binding, 125I-SS, Panc-1 membranes; parameters: species or system human; conditions: 125I-SS 0.5 nM, unlabelled RC-160 10-6 to 10-11 M, 1 h at 30 C
Excerpt: as §1

[3] = molecular target: T1, somatostatin receptors (AR42J membranes); experiment: Saturation binding, 125I-SS, AR42J membranes; conditions: 125I-SS 0.05-1 nM, 2 h at 30 C, single class of high affinity binding sites (abstract)
Excerpt: as §1

[4] = system: somatostatin receptors (MiaPaCa-2 membranes); experiment: Displacement binding, 125I-SS, MiaPaCa-2 membranes; parameters: species or system human; conditions: 125I-SS 0.5 nM, unlabelled RC-160 10-6 to 10-11 M, 1 h at 30 C
Excerpt: as §1

[5] = system: Panc-1 human ductal pancreatic carcinoma cell line; experiment: Proliferation of Panc-1 (3H-thymidine incorporation); type: cell-based; conditions: 48 h, three experiments, five determinations; for Stimulation of growth of Panc-1: serum free medium, 3H-thymidine incorporation, P<0.01 compared to untreated cells
Excerpt: (§2) Br. J. Cancer (1992), 66, 483 487 ? […] Somatostatin (SS) is a tetradecapeptide widely distributed throughout the body, being found in high concentrations in the brain, stomach, intestine and pancreas (Reichlin, 1983). Somatostatin exerts inhibitory actions on the cellular func- tions within a variety of tissues including secretion and growth (Konturek et al., 1988; Meyers & Coy, 1980; Schally, 1988). […] It has therefore been proposed that somatostatin may be capable of inhibiting pancreatic tumour growth indirectly via the suppression of secretion of pancreatic trophic hor- mones and/or by direct effects on the tumour itself (Schally et al., 1988; Liebow et al., 1989). […] For somatostatin to impair directly the growth of pancreatic cancer the cells should therefore express receptors for the peptide. The aim of these study was to determine the somatostatin receptor status of two human (MiaPaCa-2 & Panc-1) and a rat (AR42J) pancreatic cancer cell lines. We have also studied the effects of somatostatin-14 and RC-160 on the proliferation of these three cell lines. Materials and methods Cell growth MiaPaCa-2 and Panc-1 are both human ductal pancreatic carcinoma cell lines and were obtained from the European Cell Culture Collection. AR42J is a rat pancreatic acinar tumour cell line and was kindly provided by Dr S. Watson (Cancer Research Campaign Laboratories, Nottingham Uni- versity). MiaPaCa-2 and Panc-l were routinely grown in Dulbecco's Modified Eagle's Medium (DMEM) containing 10% foetal calf serum (ICN Flow, Irvine). AR42J cells were grown in RPMI 1640 containing 10% FCS (ICN Flow, Irvine). The cells were trypsinised and plated out in 96 well plates at 5 x I04 cells ml-' in serum-free (SF) medium for 24 h. After this period of serum starvation the medium was supple- mented with EGF (Sigma, Dorset) or IGF-I (Peninsula, St Helens) with or without SS-14 (Sigma, Dorset) or RC-160 (Peninsula, St Helens). EGF, IGF-1, SS-14 and RC-160 were added at concentrations described in the Results section. The cells were then incubated for 48 h at 37?C. DNA synthesis was assessed for the final 6 h by adding 0.5 liCi 3H-thymi- dine/well. The cells were then collected onto filter mats using a semi-automatic cell harvester (Inotech, Switzerland). Scin- tillation fluid was added to individual filter discs and the cell associated radioactivity counted in a beta counter (Packard 1900CA Tricarb). Binding studies Binding of ['25I-tyr"]Somatostatin (Amersham International) was performed on membranes prepared from the three cell lines. Cells were washed twice with phosphate buffered saline (pH 7.4), then removed from 150 cm2 flasks using a cell scraper. […] The protein content of the suspension was determined using a bicinchoninic acid kit (Pierce, Rockford, USA).

[6] = system: MiaPaCa-2 human ductal pancreatic carcinoma cell line; experiment: Proliferation of MiaPaCa-2 (3H-thymidine incorporation); type: cell-based; conditions: three experiments, five determinations; for Stimulation of growth of MiaPaCa-2: serum free medium, 3H-thymidine incorporation, P<0.01 compared to untreated cells
Excerpt: as §2

[7] = system: EGF receptor; conditions: ref Hierowski et al., 1985; cited from earlier work
Excerpt: (§3) Br. J. Cancer (1992), 66, 483 487 ? […] Summary The in vivo administration of somatostatin (SS) or its analogues is capable of suppressing the growth of pancreatic cancer in experimental animals. We examined the effects of SS-14 and its analogue RC-160 on the in vitro growth of ...

[8] = system: rat experimental pancreatic cancer; conditions: ref Redding et al. (1984); cited from earlier work
Excerpt: as §3

[9] = system: somatostatin receptors in human pancreatic adenocarcinomas; conditions: 12 fresh adenocarcinomas; ref Reubi et al. (1988); cited from earlier work
Excerpt: as §3

[10] = system: pancreatic exocrine secretion of protein and bicarbonate; conditions: ref Boden et al., 1975; cited from earlier work
Excerpt: as §3

[11] = system: MiaPaCa-2; conditions: cited from earlier work
Excerpt: as §3

[12] = system: hamster experimental pancreatic cancer; conditions: ref Redding et al. (1984); cited from earlier work
Excerpt: as §3

[13] = system: tyrosine phosphatase activity; conditions: in vitro, MiaPaCa-2; ref Liebow et al., 1989; cited from earlier work
Excerpt: as §3

[14] = system: somatostatin binding sites in human pancreatic cancer xenograft; conditions: ref Singh and colleagues (1991); cited from earlier work
Excerpt: as §3

[15] = system: Panc-1; conditions: unstimulated cells, serum-free medium, one concentration; ref Liehr et al., 1990; cited from earlier work
Excerpt: as §3

[16] = system: somatostatin receptors on MiaPaCa-2; conditions: no Kd quoted, no total or non-specific binding curves; ref Hierowski et al. (1985); cited from earlier work
Excerpt: as §3

[17] = system: endocrine secretion of cholecystokinin, gastrin and secretin; conditions: ref Schally et al., 1978; cited from earlier work
Excerpt: as §3

Compound: CC(C)[C@@H]1NC(=O)[C@H](CCCCN)NC(=O)[C@@H](Cc2c[nH]c3ccccc23)NC(=O)[C@H](Cc2ccc(O)cc2)NC(=O)[C@@H](NC(=O)[C@H](N)Cc2ccccc2)CSSC[C@@H](C(=O)N[C@@H](Cc2c[nH]c3ccccc23)C(N)=O)NC1=O [RC-160] (H-[dF]CY[dW]KVCW-NH2; disulfide 2-7)
- Displacement of radiolabelled somatostatin from AR42J membranes ([1]; unlabelled RC-160 10-6 to 10-11 M, 50 mM Tris, 0.2% BSA, filtration): 95%
- IC50 ([1]; competition, AR42J membranes, non-linear regression): 0.631 nM

Compound: C[C@H](N)C(=O)NCC(=O)N[C@H]1CSSC[C@@H](C(=O)O)NC(=O)[C@H](CO)NC(=O)[C@H]([C@@H](C)O)NC(=O)[C@H](Cc2ccc(O)c(I)c2)NC(=O)[C@H]([C@@H](C)O)NC(=O)[C@H](CCCCN)NC(=O)[C@H](Cc2c[nH]c3ccccc23)NC(=O)[C@H](Cc2ccccc2)NC(=O)[C@H](Cc2ccccc2)NC(=O)[C@H](CC(N)=O)NC(=O)[C@H](CCCCN)NC1=O [125I-Tyr11 somatostatin] (H-AGCKNFFWKT[Tyr(3-I)]TSC-OH; disulfide 3-14 (inferred); N-terminus and C-terminus assumed)
- Displaceable binding, Panc-1 [2]: not displaceable binding was observed
- Bmax [3]: 2.1 +/- 0.26 pmoles mg-1 protein
- Displaceable binding, MiaPaCa-2 [4]: not displaceable binding was observed

Compound: epidermal growth factor [EGF, epidermal growth factor (Sigma, Dorset)]
- Stimulation of growth of Panc-1 [5]: stimulated the growth of both cell lines (P<0.01 compared to untreated cells)
- Stimulation of growth of MiaPaCa-2 ([6]; 48 h): stimulated the growth of both cell lines (P<0.01 compared to untreated cells), having a more pronounced effect on MiaPaCa-2

Compound: SS-14: Somatostatin (SS) is a tetradecapeptide; SS-14 from Sigma, Dorset
- Dephosphorylation of the EGF receptor [7]: causes the dephosphorylation of the EGF receptor
- Inhibition of rat experimental pancreatic cancer growth [8]: inhibition of both rat and hamster experimental pancreatic cancer growth
- Specific somatostatin receptors in fresh human pancreatic adenocarcinomas [9]: none of which contained specific somatostatin receptors
- Inhibition of pancreatic exocrine secretion [10]: inhibits the pancreatic exocrine secretion of protein and bicarbonate
- Inhibition of EGF-stimulated growth of MiaPaCa-2 ([11]; in vitro, ref Liebow et al. (1986; 1989)): all inhibit the EGF- stimulated growth of MiaPaCa-2
- Growth inhibitory effect, MiaPaCa-2 ([11]; unstimulated cells, serum-free medium, one concentration, ref Liehr et al., 1990): no growth inhibitory effect
- Inhibition of hamster experimental pancreatic cancer growth [12]: inhibition of both rat and hamster experimental pancreatic cancer growth
- Promotion of tyrosine phosphatase activity [13]: promotion of tyrosine phosphatase activity
- Specific binding sites in human pancreatic cancer xenograft [14]: one of these xenografts expressed specific binding sites
- Growth inhibitory effect, Panc-1 [15]: no growth inhibitory effect
- Bmax, MiaPaCa-2 [16]: 3.6 fmole mg-' protein
- Inhibition of endocrine secretion of cholecystokinin, gastrin and secretin [17]: inhibits the pancreatic exocrine secretion of protein and bicarbonate (Boden et al., 1975) and the endocrine secretion of cholecystokinin, gastrin and secretin
- Effect on DNA synthesis in EGF stimulated Panc-1 cells ([5]; EGF 10^-8 M, serum free, 3H-thymidine for final 6 h, P>0.05 compared to stimulated cells): neither SS-14 nor RC-160 had any effect on DNA synthesis
- Effect on DNA synthesis in IGF-1 stimulated Panc-1 cells ([5]; IGF-1 10^-8 M, serum free, 3H-thymidine for final 6 h, P>0.05 compared to stimulated cells): neither SS-14 nor RC-160 had any effect on DNA synthesis
- Effect on DNA synthesis in EGF stimulated MiaPaCa-2 cells ([6]; EGF 10^-8 M, serum free DMEM, 48 h at 37 C, 3H-thymidine for final 6 h, P>0.05 compared to stimulated cells): neither SS-14 nor RC-160 had any effect on DNA synthesis
- Effect on DNA synthesis in IGF-1 stimulated MiaPaCa-2 cells ([6]; IGF-1 10^-8 M, serum free, 48 h, 3H-thymidine for final 6 h, P>0.05 compared to stimulated cells): neither SS-14 nor RC-160 had any effect on DNA synthesis

Compound: insulin-like growth factor 1 [IGF-1]
- Stimulation of growth of Panc-1 [5]: increased the proliferation of the two cell lines (P<0.01 compared to untreated cells)
- Stimulation of growth of MiaPaCa-2 ([6]; 48 h): increased the proliferation of the two cell lines (P<0.01 compared to untreated cells)
